Experimental data published in patent EP1056700B1, “MEDICINAL USES OF PHENYLALKANOLS AND DERIVATES” (ZingoTX Pty Ltd, priority 1997, dated 1999).

Legend:
Cyclo-oxygenase (COX) = assay: Cyclo-oxygenase assay in RBL 2H3 cells (PGD2 EIA); type: cell-based, rat
Experimental: Cyclo-oxygenase (COX) assay was performed with cells in culture prepared from rat basophilic leukemia (RBL) 2H3 cell lines. Cells were cultured in EMEM containing 10% fetal calf serum and antibiotic until cells reached confluence. Harvested cells were subsequently seeded on 24-well plates at 1 x 10^6 cells/ml then incubated at 37°C for 3 hours. Cells were washed twice with incubation buffer (1.5 ml) containing 5 mM Hepes, 140 mM NaCl, 5 mM KCl, 0.6 mM MgCl2, 1 mM CaCl2 and […]. Cells were then covered with 0.49 ml of buffer, followed by addition of samples/solvents (0.005 ml) and incubated at 37 °C for 5 min on an orbital shaker. Arachidonic acid (0.005 ml, containing 50% EtOH) was subsequently added, and the plate was incubated at similar conditions for a further 10 min. The supernatant (0.1 ml) was aliquoted for methoxime derivatisation of PGD2, which was carried out by heating the supernatant with methoxime solution (1:1) at 60 °C for 30 min according to the instructions provided with the kit. The resultant solution was diluted with EIA buffer and stored on ice for EIA, following the protocol provided with the kit.
Validation of COX enzyme activity was carried out using EIA in which the enzyme activity was characterised against various concentrations of AA and a time course of enzyme activity.
[…] Indomethacin was used as reference compound. The concentration of DMSO in the assay was maintained at 1.5%.

guinea pig atria = assay: Organ bath assay on isolated guinea pig atria (rate and force of contraction)
Experimental: Male guinea pigs, 3-4 weeks old, were killed by rapid cervical dislocation without induced anaesthesia. Then, the guinea pigs were dissected to isolate the atria which were immediately mounted vertically in an organ bath containing Krebs-Henseleit solution oxygenated with carbogen.
One gram tension was applied to the atria and the base line continuously adjusted until it was stable for 20 mins. The rate and force of contraction were recorded using Mac Lab equipment.
Test substances in DMSO were assayed to a maximum concentration of 50 µM at a final concentration of 2.5 % of DMSO.

DRG neuronal cells = assay: Peak [Ca^2+]i transients in cultured dorsal root ganglion neurons (Fura-2); type: cell-based, rat; conditions: for Number of capsaicin-sensitive cells responding / Peak [Ca^2+]i (Average ±SD): 2 mM Ca^2+
Experimental: DRG from neonatal (3-5 days old) rat or adult Sprague-Dawley rats were incubated in Hanks CMF saline with 0.05% collagenase and 0.25% trypsin for 25 min at 37° C. Individual cells were obtained by trituration with fire polished Pasteur pipettes of diminishing diameters. Neurones were isolated from the cell suspension in 30% Percoll and then plated on collagen coated coverslips or in 24-well plates, then cultured in neurobasal medium with B27 supplement, 50 ng/ml 2.5 S nerve growth factor, 2 mM 1-glutamine and 100 U/ml penicillin/streptomycin. Cultures were maintained at 37° C with 5% CO2. 30% Percoll increases the percentage of capsaicin-sensitive DRG neurones up to 70%. For peak [Ca^2+]i transients measurements, cells on coverslips were incubated with 5 µM Fura-2 AM for 30 min at 37° C. The coverslips were then mounted on a chamber attached to a fast sample application perfusion system which allows changing solutions in the second range. Recordings were made on the stage of a Nikon Diaphot inverted microscope fitted with a Nikon 40 x Fluo (NA 0.85) DL Ph3 or 40 x Fluo (NA 1.3) oil objective. [Ca^2+]i was calculated from dual excitation wavelength (340/380 nm) fluorescence measurements following an intracellular calibration procedure by the Grynkiewicz equation, using MCID M2/M4 v.3.0 (Imaging Res. Inc.) software. Cells were continuously perfused with a solution consisting of 140 mM NaCl, 2 mM CaCl2, 5 mM KCl, 20 mM HEPES, 10 mM glucose, pH 7.4. To study KCl evoked depolarisation, 50 mM NaCl was replaced by equimolar KCl. Cytoplasmic localisation of Fura-2 was tested with the Mn^2+ quenching technique (Dedov and Roufogalis, 1998). All experiments were performed at room temperature (20-23°C).
Typical changes in [Ca^2+]i upon depolarisation were evoked by 50 mM KCl and by application of 1 µM capsaicin; both were applied for 30 sec. Capsaicin-evoked peak [Ca^2+]i transients are characterised by a fast rise and long-steady state [Ca^2+]i clearance from the cytoplasm. In capsaicin-sensitive cells the half-time of cytoplasmic Ca^2+ clearance was proportional to the amplitudes of peak [Ca^2+]i transients.
To examine the effect of gingerol derivatives, one or several compounds in succession at a concentration of 10 µM were applied for 1 min to the DRG neuronal cells followed by washing out for 4 min with physiological solution. To the capsaicin-sensitive cells, 10 µM capsaicin and 50 mM KCl were applied, respectively, to confirm the viability of the cells. In addition, morphological appearances of the cells were also examined at the end of experiment. […]

Lipoxygenase (LP) = target: T1, Lipoxygenase (LP) (Rattus norvegicus, UniProt P12527); assay: Lipoxygenase assay with cell-free enzyme from RBL 2H3 cells (EIA); type: biochemical; conditions: for activity at 10 µM: final concentration of 10 µM
T1 construct: cell-free enzyme (Wong et al, 1991) prepared from rat basophilic leukemia (RBL) 2H3 cell lines; endogenous in cells; host or cells: RBL 2H3 (rat basophilic leukemia), 15,000 g supernatant of cells disrupted by nitrogen cavitation
T1 sequence (P12527 1-673): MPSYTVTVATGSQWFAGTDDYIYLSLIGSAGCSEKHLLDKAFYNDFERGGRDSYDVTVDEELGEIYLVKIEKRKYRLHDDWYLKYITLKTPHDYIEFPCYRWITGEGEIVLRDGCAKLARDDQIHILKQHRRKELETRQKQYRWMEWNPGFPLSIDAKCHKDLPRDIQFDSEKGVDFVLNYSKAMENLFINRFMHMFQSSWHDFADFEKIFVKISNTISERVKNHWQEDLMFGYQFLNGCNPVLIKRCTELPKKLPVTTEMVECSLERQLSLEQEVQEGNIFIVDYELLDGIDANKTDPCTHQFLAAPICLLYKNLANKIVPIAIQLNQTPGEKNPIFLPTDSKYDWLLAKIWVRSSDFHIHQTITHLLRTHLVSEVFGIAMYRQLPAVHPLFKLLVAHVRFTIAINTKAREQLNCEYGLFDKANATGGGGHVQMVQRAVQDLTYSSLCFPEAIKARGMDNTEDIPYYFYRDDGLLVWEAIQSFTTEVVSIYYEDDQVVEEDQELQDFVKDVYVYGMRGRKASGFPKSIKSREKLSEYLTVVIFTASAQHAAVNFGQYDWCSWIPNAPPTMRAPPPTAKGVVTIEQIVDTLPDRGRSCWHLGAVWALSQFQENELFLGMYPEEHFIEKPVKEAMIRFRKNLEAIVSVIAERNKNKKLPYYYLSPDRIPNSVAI
Experimental: Lipoxygenase (LP) assay was performed with cell-free enzyme (Wong et al, 1991) prepared from rat basophilic leukemia (RBL) 2H3 cell lines. Cells were cultured in EMEM containing 10% fetal calf serum and antibiotic until cells reached confluence. Harvested cells were resuspended in Hepes (10 mM) buffer, pH 7.4, containing 1 mM EDTA at 1 x 10^7 cells/ml, and disrupted by nitrogen cavitation using a Parr bomb at 750 psi for 15 min. The broken cells were centrifuged at 15,000 g for 30 min. Aliquots (0.1 ml) of the supernatant were preincubated with or without drugs in Hepes buffer (10 mM Hepes, pH 7, 1 mM EDTA and 150 mM NaCl) for 5 min, and the reaction was initiated with the addition of 50 µl of CaCl2 (16 mM), 50 µl of ATP (2 mM), 5 µl of PAF (2.5 mg/ml) and 5 µl of AA (2.5 mM). The reaction mixture ([…]) was incubated at room temperature for a further 8 min, then diluted with EIA buffer at 1/200 and 1/2000 dilutions and stored on ice for EIA following the protocol provided with the kit.
Validation of LP enzyme activity was carried out by a UV spectrophotometric method in which the enzyme activity was characterised against various concentrations of Ca^2+, ATP, PAF and AA with the measurement of the formation of diene conjugated products of LP at 235 nm.
All compounds were dissolved in DMSO and assayed at a final concentration of 10 µM. NDGA was used as reference compound. The concentration of DMSO in the assay was maintained at 1.5%.

SR Ca^2+-ATPase = target: T2, SR Ca^2+-ATPase (Canis lupus familiaris, UniProt O46674); assay: Sarcoplasmic reticulum Ca^2+-ATPase assay; type: biochemical, dog; conditions: result in words
T2 construct: Effect of gingerols and their derivatives on the Ca^2+-ATPase activity of dog cardiac SR; from tissue; host or cells: dog heart (cardiac sarcoplasmic reticulum)
Experimental: A portion at each concentration (54 µl) was aliquoted into 4 designated wells of the microplate (two of four wells were controls). Each well was mixed with ATP solution (20 mM, 6 µl), except the controls, using an 8 channel pipette. The controls were assayed in the absence of ATP or calcium.
The plate was incubated with the lid on, for 30 min at 37°C, colour reagent (160 µl) was then added and mixed with citrate solution (34%, 30 µl). The plate was developed at room temperature for 30 min then absorbance at 655 nm was read from the microplate reader. The Ca^2+-ATPase activity was quantitated, from a Pi standard curve, as concentration of liberated inorganic phosphate.
Stock solutions (10 mM) of test substance were prepared in DMSO, then series dilutions were made either in DMSO or in 1M HEPES to produce the dose-response concentrations. The maximum concentration of DMSO in the final assay solution was 2.5%.
Each concentration of test substance was assayed in duplicate in the presence and absence of ATP or calcium. Phosphate standards are run on each plate as follows:
Effect of gingerols and their derivatives on the Ca^2+-ATPase activity of dog cardiac SR.

[1] = result in words, guinea pig atria

T2 sequence (O46674 whole entry): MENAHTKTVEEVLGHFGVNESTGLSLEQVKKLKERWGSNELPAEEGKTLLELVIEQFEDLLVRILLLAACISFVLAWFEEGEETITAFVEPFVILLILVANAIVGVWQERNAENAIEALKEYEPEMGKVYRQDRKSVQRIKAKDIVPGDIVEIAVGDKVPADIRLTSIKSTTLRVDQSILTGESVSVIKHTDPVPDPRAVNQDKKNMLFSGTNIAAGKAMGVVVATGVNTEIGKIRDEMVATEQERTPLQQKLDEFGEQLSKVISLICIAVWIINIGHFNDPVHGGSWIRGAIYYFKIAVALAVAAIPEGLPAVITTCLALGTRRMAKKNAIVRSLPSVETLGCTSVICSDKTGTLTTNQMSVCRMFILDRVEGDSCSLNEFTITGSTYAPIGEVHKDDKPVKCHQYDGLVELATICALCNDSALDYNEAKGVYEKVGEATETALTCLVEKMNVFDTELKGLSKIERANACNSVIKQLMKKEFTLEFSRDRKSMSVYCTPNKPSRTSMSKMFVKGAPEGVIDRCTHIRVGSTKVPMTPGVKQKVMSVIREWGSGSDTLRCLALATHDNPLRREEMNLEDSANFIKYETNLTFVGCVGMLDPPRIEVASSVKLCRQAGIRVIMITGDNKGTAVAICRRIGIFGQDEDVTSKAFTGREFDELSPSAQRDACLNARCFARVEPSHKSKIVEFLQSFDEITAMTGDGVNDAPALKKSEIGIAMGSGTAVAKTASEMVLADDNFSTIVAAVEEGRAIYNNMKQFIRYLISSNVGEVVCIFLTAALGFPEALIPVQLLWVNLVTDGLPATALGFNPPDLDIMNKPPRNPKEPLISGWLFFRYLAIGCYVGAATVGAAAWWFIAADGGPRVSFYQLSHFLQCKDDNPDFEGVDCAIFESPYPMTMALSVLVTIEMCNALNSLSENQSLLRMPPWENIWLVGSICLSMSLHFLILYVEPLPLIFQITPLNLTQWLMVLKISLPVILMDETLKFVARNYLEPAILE

SMILES: COc1ccc2c(c1)c(CC(=O)O)c(C)n2C(=O)c1ccc(Cl)cc1 [Indomethacin, reference compound]
- Cyclooxygenase activity % activity (Cyclo-oxygenase (COX); 1 µM): 23%

SMILES: COc1cc(CNC(=O)CCCC/C=C/C(C)C)ccc1O [Capsaicin, reference compound]
- tachycardial and inotropic effects on guinea pig atria (guinea pig atria; result in words): tachycardial and inotropic effects
- Number of capsaicin-sensitive cells responding (DRG neuronal cells; high responses, 10 µM): 5
- Peak [Ca^2+]i (Average ±SD) (DRG neuronal cells; high responses, 10 µM): 824 ± 122 (high responses) nM
- evoked [Ca^2+]i transients (DRG neuronal cells; in Ca^2+-free medium or on application of ruthenium red (1 µM)): abolished or greatly diminished
- Number of capsaicin-sensitive cells responding (DRG neuronal cells; low responses, 10 µM): 10
- Peak [Ca^2+]i (Average ±SD) (DRG neuronal cells; low responses, 10 µM): 134 ± 78 (low responses) nM

SMILES: CCCCCCCCCC(O)C(=O)c1ccc(O)c(OC)c1 (centres unmarked) [2-hydroxy-1-(4-hydroxy-3-methoxyphenyl)undecan-1-one]
- Number of capsaicin-sensitive cells responding (DRG neuronal cells; 10 µM applied for 1 min): 2
- Peak [Ca^2+]i (Average ±SD) (DRG neuronal cells; 10 µM applied for 1 min): 215 ± 7 nM
- Cyclooxygenase activity % activity (Cyclo-oxygenase (COX); final concentration of 10 µM): 95%
- activity at 10 µM (Lipoxygenase (LP)): 61%

SMILES: CCCCCCCC(O)CC(=O)CCc1ccc2c(c1)OCO2 (centres unmarked) [drawing 42]
- SR Ca^2+-ATPase (SR Ca^2+-ATPase): inactive

SMILES: CC(Cc1ccc(O)c(O)c1)C(C)Cc1ccc(O)c(O)c1 (centres unmarked) [NDGA, reference compound]
- activity at 0.5 µM (Lipoxygenase (LP); 0.5 µM): 20%

SMILES: CCCCCCCC=CC(=O)CCc1ccc(O)c(OC)c1 [[8]-shogaol, 1-(4-hydroxy-3-methoxyphenyl)dodecan-4-ene-3-one, reference compound]
- Number of capsaicin-sensitive cells responding (DRG neuronal cells; 10 µM applied for 1 min): 2
- Peak [Ca^2+]i (Average ±SD) (DRG neuronal cells; 10 µM applied for 1 min): 110 ± 56 nM
- Cyclooxygenase activity % activity (Cyclo-oxygenase (COX); final concentration of 10 µM): 21%
- activity at 10 µM (Lipoxygenase (LP)): 0%

SMILES: C[C@H]1O[C@@H](O[C@H]2[C@@H](O)C[C@H](O[C@H]3[C@@H](O)C[C@H](O[C@H]4CC[C@@]5(C)[C@H](CC[C@@H]6[C@@H]5C[C@@H](O)[C@]5(C)[C@@H](C7=CC(=O)OC7)CC[C@]65O)C4)O[C@@H]3C)O[C@@H]2C)C[C@H](O)[C@@H]1O [Digoxin, reference compound]
- time for tension to reach maximum after addition of a dose (guinea pig atria; guinea pig atria): a few mins

SMILES: COc1cc(CCC(=O)CC(O)CCCCCCC(O)CC(=O)CCc2ccc(O)c(OC)c2)ccc1O (centres unmarked) [bisgingerol, 5,12-dihydroxy-1,16-bis(4-hydroxy-3-methoxyphenyl)hexadecane-3,14-dione]
- FORCE OF CONTRACT^n (guinea pig atria; [1]): inactive
- HEART RATE (guinea pig atria; [1]): inactive
